In patent publication US4119729A, “Alkylsulfonylphenoxypropanolamine therapeutic process” (Mead Johnson & Company, priority 1977, dated 1978):
Like-named read-outs stand apart in the source and are kept apart here.

Key:
β-Adrenergic Receptor [1] = assay: guinea pig tracheal preparation, β-adrenergic receptor antagonist molar potency; conditions: molar potency relative to propranolol = 1
From the text: (§1) Cardioselective β1 -adrenergic blocking activity of the compounds of the present invention can be assessed in standard in vitro pharmacological test systems such as the spontaneously beating rabbit atrial preparation and the guinea pig tracheal preparation.
(§2) A Comparison of β-Adrenergic Receptor Antagonist Molar
(§3) Potencies Determined in Rabbit Atrial and Guinea
(§4) Pig Tracheal Preparations

[2] = acute toxicity (LD50) in the mouse; conditions: in vivo
[3] = tested on: isoproterenol-induced increased contractile force and heart rate; assay: inhibition of isoproterenol-induced increased contractile force and heart rate in the anesthetized dog; assay type: in vivo; conditions: Canis lupus familiaris, intravenous, isoproterenol challenge 0.2 mcg./kg. intravenous
From the text: A preferred compound of this invention, 1-(isopropylamino)-3-[4-(methylsulfonyl)-3-tolyloxy]-2-propanol hydrochloride, inhibits increased contractile force and heart rate in the anesthetized dog induced by a standard challenge dose of 0.2 mcg./kg.

β-Adrenergic Receptor [4] = assay: spontaneously beating rabbit atrial preparation, β-adrenergic receptor antagonist molar potency
From the text: as §1, §2, §3, §4

[5] = acute toxicity (LD50) in the rat; conditions: in vivo, po
[6] = tested on: spontaneous hypertensive rat; assay: blood pressure lowering in the spontaneous hypertensive rat; assay type: in vivo; conditions: oral dose of 100 mg./kg. body weight
Description: For the purpose of treating hypertension in a mammal, the antihypertensive process of the instant invention is carried out by systemically administering to a mammal in need of such treatment an antihypertensive effective amount of a compound selected from the group characterized by Formula I or preferably by Formula X or a pharmaceutically acceptable non-toxic acid addition salt thereof. By systemic administration, it is intended to include both oral and parenteral routes. Examples of parenteral administration are intramuscular, intravenous, intraperitoneal,rectal, and subcutaneous administration. The dosage will vary with the form of administration and the particular compound chosen. However, from about 0.3 mg. per kg. body weight to 100 mg. per kg. body weight of a compound characterized by Formula I administered in effective single or multiple dosage units is generally satisfactory. In accordance with conventional clinical practice, the antihypertensive agent is administered at a dosage substantially less than the dose of the compound thought to be effective. Thereafter, the dosage is increased by small increments until the optimum antihypertensive effect under the circumstances is reached. At effective antihypertensive dosage levels, the compounds of this invention are substantially free of harmful or deleterious side effects. […]

Row | Compound | Potency Ratio Trachea (β-Adrenergic Receptor [1]) | LD50 ([2]; ip, read-out: intraperitoneal LD50) [mg/kg] | LD50 ([2]; po, read-out: oral LD50) [mg/kg] | ED50 ([3]; read-out: ED50, inhibition of increased contractile force) [mg/kg] | ED50 ([3]; read-out: ED50, inhibition of increased heart rate) [mg/kg] | Potency Ratio Atria (β-Adrenergic Receptor [4]; molar potency relative to propranolol = 1, rabbit atrial preparation) | Cardioselectivity Ratio: Atria/Trachea (β-Adrenergic Receptor [4]; ratio of potency ratios, rabbit atria / guinea pig trachea) | LD50 [5] [mg/kg] | lowered blood pressure [6]
1 | Cc1cc(OCC(O)CNC(C)C)ccc1S(C)(=O)=O.Cl (stereo not drawn) [1-(ISOPROPYLAMINO)-3-[4-(METHYLSULFONYL)-m-TOLYLOXY]-2-PROPANOL HYDROCHLORIDE] | 0.01 | 339 | 1500 | 0.71 | 2.02 | 0.37 | 37 | 1790 | 
2 | Cc1cc(OCC(O)CNC(C)COc2ccccc2)ccc1S(C)(=O)=O (stereo not drawn) [3-[4-(methylsulfonyl)-m-tolyloxy]-1-(1-phenoxy-2-propylamino)-2-propanol] |  |  |  |  |  |  |  |  | about 22.4 mm Hg
